Measured values as given in US7910362B2, “Reporter vector for use in evaluation of CYP1A2 induction” (Eisai R&D Management Co., Ltd., priority 2005, dated 2011).

Key:
[1] = tested on: transcriptional regulatory region of human CYP1A1 and CYP1A2; test: Reporter assay in HepG2 cells with dual reporter vectors, reporter (SEAP/Luc) not distinguished in the statement; conditions: for enhancement of expression of the reporter: reporter vector T (comprises XRE E8, lacks 1535 to 2866); for induction of expression of the reporter: reporter vector U (does not comprise XRE E8); for reporter activities compared with DMSO: reporter vectors E1 to E5 (each one XRE deleted), E3 slightly lower; for enhancement of the expression of the reporter: reporter vectors comprising nucleotide numbers 1535 to 2867 in SEQ ID NO: 1 (XREs densely exist), HepG2
Procedure: (§1) Each of the obtained reporter vector comprising the transcriptional regulatory region of human CYP1A1 and CYP1A2 and reporter vectors comprising the transcriptional regulatory region partially deleted was transiently expressed in HepG2 cells (purchased from RIKEN) by using a transfection reagent (FuGene6, Roche), and 40 hours after the addition of a drug dissolved in DMSO or DMSO alone, the activity of a secreted alkaline phosphatase (SEAP), which reflects CYP1A2, and the activity of a luciferase (Luc), which reflects CYP1A1, were measured. LumiPhos 530 (Lumigen Inc.) was used as a substrate for the measurement of the SEAP activity.
A reporter assay was performed by using the obtained vectors.

human CYP1A2 = test: Reporter assay in HepG2 cells: secreted alkaline phosphatase (SEAP) activity, which reflects CYP1A2; format: cell-based; conditions: for reporter activity (SEAP) compared with DMSO: expression vector K, L or P (only region neighboring CYP1A2); for reporter activity (SEAP) compared with DMSO / reporter activity (SEAP): 40 hours; for reporter activity (SEAP): expression vector M; for SEAP activity compared with the group where DMSO alone was added: reporter vectors A to J, N, O, T and U, 40 hours after addition, 3-MC 1 μM, BNF 10 μM
Procedure: as §1
In the same manner as that in 4, the expression vectors K to M and P to S obtained above were transiently expressed in HepG2 cells by using the gene transfer reagent, and 40 hours after the addition of a drug dissolved in DMSO or DMSO alone, activity of a secreted alkaline phosphatase (SEAP) was measured (FIG. 5).
(§2) In the same manner as that in 4, each of the expression vectors A to J, N, O, T and U was transiently expressed in HepG2 cells by using the transfection reagent, and 40 hours after the addition of a drug dissolved in DMSO or DMSO alone, activity of a secreted alkaline phosphatase (SEAP), which reflects CYP1A2, and activity of a luciferase (Luc), which reflects CYP1A1, were measured.

human CYP1A1 = test: Reporter assay in HepG2 cells: luciferase (Luc) activity, which reflects CYP1A1; conditions: reporter vectors A to J, N, O, T and U, 40 hours after addition, 3-MC 1 μM, BNF 10 μM
Procedure: Each of the obtained reporter vector comprising the transcriptional regulatory region of human CYP1A1 and CYP1A2 and reporter vectors comprising the transcriptional regulatory region partially deleted was transiently expressed in HepG2 cells (purchased from RIKEN) by using a transfection reagent (FuGene6, Roche), and 40 hours after the addition of a drug dissolved in DMSO or DMSO alone, the activity of a secreted alkaline phosphatase (SEAP), which reflects CYP1A2, and the activity of a luciferase (Luc), which reflects CYP1A1, were measured. LumiPhos 530 (Lumigen Inc.) was used as a substrate for the measurement of the SEAP activity. The Luc activity was measured by using Luciferase Assay System (Promega) (FIG. 3).
as §2

O=c1cc(-c2ccccc2)oc2ccc3ccccc3c12 [BNF, β-naphthoflavone]
enhancement of expression of the reporter [1]: strong enhancement of expression | induction of expression of the reporter [1]: did not show the induction | reporter activities compared with DMSO [1]: several folds to 10 or more folds higher | enhancement of the expression of the reporter [1]: intense enhancement of the expression | reporter activity (SEAP) compared with DMSO (human CYP1A2): ~1 fold | reporter activity (SEAP) (human CYP1A2): at the background level | SEAP activity compared with the group where DMSO alone was added (human CYP1A2): increase in the SEAP activity and Luc activity was observed | Luc activity compared with the group where DMSO alone was added (human CYP1A1): increase in the SEAP activity and Luc activity was observed

COc1ccc2[nH]c([S+]([O-])Cc3ncc(C)c(OC)c3C)nc2c1 (centres unmarked) [omeprazole]
reporter activities compared with DMSO [1]: several folds to 10 or more folds higher

Cc1ccc2cc3c(ccc4ccccc43)c3c2c1CC3 [3-MC, 3-methylcholanthrene]
enhancement of expression of the reporter [1]: strong enhancement of expression | induction of expression of the reporter [1]: did not show the induction | reporter activities compared with DMSO [1]: several folds to 10 or more folds higher | enhancement of the expression of the reporter [1]: intense enhancement of the expression | reporter activity (SEAP) compared with DMSO (human CYP1A2): ~1 fold | reporter activity (SEAP) (human CYP1A2): at the background level | SEAP activity compared with the group where DMSO alone was added (human CYP1A2): increase in the SEAP activity and Luc activity was observed | Luc activity compared with the group where DMSO alone was added (human CYP1A1): increase in the SEAP activity and Luc activity was observed
